Assay results as given in article PMC8795197, “Safety and activity of WX-0593 (Iruplinalkib) in patients with ALK- or ROS1-rearranged advanced non-small cell lung cancer: a phase 1 dose-escalation and dose-expansion trial” (Signal Transduction and Targeted Therapy, 2022).
“Also recorded” adds a separate entry of the source.

Test system: advanced NSCLC patients with ALK or ROS1 rearrangement
Experiment: Phase 1 dose-expansion phase: antitumor activity (RECIST 1.1, investigators)
Assay type: in vivo, human
Conditions: for intracranial objective response rate: Baseline measurable CNS metastasis; for DOR, median (95% CI) / PFS, median (95% CI) / TTP, median (95% CI) / DCR (95% CI) / ORR (95% CI) / PFS, number of events (%): ALK-positive patients
Excerpt: Patients continued treatment until documented disease progression, unacceptable toxicity, withdrawal of consent, the start of a new anticancer treatment, death, loss of follow-up, or end of the study (whichever occurred first). Patients were permitted to continue treatment after progression if they were still experiencing clinical benefit, at the discretion of the investigator. Patients performed imaging evaluation at baseline, with computed tomography or magnetic resonance imaging of the chest, abdomen, pelvis, and brain. In the dose-escalation phase, the first efficacy evaluation was done after 3-week continuous administration of WX-0593 and every 6 weeks thereafter. […] AEs were assessed in all patients throughout this study and graded per the National Cancer Institute Common Terminology Criteria for Adverse Events version 4.03. In the dose-expansion phase, the primary endpoint was ORR assessed by investigators. Other key secondary endpoints included PFS, DCR, time to progression (TTP), DOR, intracranial response, and safety. Additionally, overall survival (OS) was assessed as a prespecified exploratory endpoint. ORR was defined as the proportion of patients who had best overall response, including CR or PR. PFS was calculated from the date of the first dose of WX-0593 to the date of documented disease progression or death (whichever occurred first). DCR was defined as the proportion of patients who had best overall response, including CR, PR, or SD, with a duration of at least 12 weeks. TTP was calculated from the date when the first dose of WX-0593 was given to first documented disease progression. […] OS was calculated from the date when the first dose of WX-0593 was administered to the date of death from any cause. Safety analysis was performed in the SS, which was comprised of all patients treated with one dose of WX-0593 and with safety data recorded. Efficacy analysis was performed in the FAS, which was defined as all patients treated with at least one dose of WX-0593. The PK analysis set included all patients treated with at least one dose of WX-0593 and with at least one evaluable PK sample. […] Descriptive statistics were carried out to summarize patients’ baseline characteristics and safety. […] All time-to-event data (PFS, TTP, DOR, and OS) and their corresponding 95% CIs were estimated by Kaplan–Meier methods. PK parameter analyses were done with Phoenix WinNonlin version 8.0. All other statistical analyses were conducted using SAS version 9.4.

[1] = ALK-rearranged, crizotinib as the only ALK TKI

COc1cc(N2CCC3(CCN(C)CC3)CC2)ccc1Nc1ncc(Cl)c(Nc2ccccc2P(C)(C)=O)n1 [WX-0593]
objective response rate (120mg, ALK-rearranged patients): 53.2% (25/47, 38.1-67.9%)
objective response rate (120mg, ALK-rearranged patients, ALK TKI naive): 76.5% (13/17, 50.1-93.2%)
objective response rate (120mg, ALK-rearranged patients, ALK TKI naive, chemotherapy naïve): 75.0%(6/8, 34.9-96.8%)
objective response rate (120mg, ALK-rearranged patients, ALK TKI naive, received chemotherapy before): 77.8% (7/9, 40.0-97.2%)
objective response rate (120mg, ALK-rearranged patients, Crizotinib and other ALK TKIs): 0 (0/2, 0-84.2%)
objective response rate (120mg, ALK-rearranged patients, Crizotinib only): 44.4% (12/27, 25.5-64.7%)
objective response rate (120mg, ALK-rearranged patients, Other ALK TKIs): 0 (0/1, 0-97.5%)
objective response rate (120mg, Baseline CNS metastasis): 22.9% (8/35, 10.4-40.1%)
objective response rate (120mg, Baseline CNS metastasis, ALK TKI naive): 23.1% (3/13, 5.0-53.8%)
objective response rate (120mg, Baseline CNS metastasis, Crizotinib only): 25.0% (5/20, 8.7-49.1%)
objective response rate (120mg, Baseline CNS metastasis, Radiotherapy before): 16.7% (2/12, 2.1-48.4%)
objective response rate (120mg, Baseline CNS metastasis, Radiotherapy naïve): 26.1% (6/23, 10.2-48.4%)
intracranial objective response rate (120mg): 45.5% (2/11, 16.7-76.6%)
intracranial objective response rate (120mg, ALK TKI naive): 33.3% (1/3, 0.8-90.6%)
intracranial objective response rate (120mg, Crizotinib only): 50.0% (4/8, 15.7-84.3%)
intracranial objective response rate (120mg, Radiotherapy before): 28.6% (2/7, 3.7-71.0%)
intracranial objective response rate (120mg, Radiotherapy naïve): 75.0% (3/4, 19.4-99.4%)
objective response rate (120mg, Prior ALK TKI treatment: Crizotinib and other ALK TKI): 0 (0/2, 0-84.2%)
objective response rate (120mg, Prior ALK TKI treatment: Crizotinib only): 41.4% (12/29, 23.5-61.1%)
objective response rate (120mg, ROS1-rearranged patients): 0 (0/3, 0-70.8%)
objective response rate (120mg, ROS1-rearranged patients, Crizotinib naive): 0 (0/1, 0-97.5%)
objective response rate (120mg, ROS1-rearranged patients, Received Crizotinib before): 0 (0/2, 0-84.2%)
objective response rate (120mg, dose expansion phase, Prior ALK TKI treatment: ALK TKI naive): 72.2% (13/18, 46.5-90.3%)
objective response rate (180mg, ALK-rearranged patients): 63.6% (28/44, 47.8-77.6%)
objective response rate (180mg, ALK-rearranged patients, ALK TKI naive): 76.2% (16/21, 52.8-91.8%)
objective response rate (180mg, ALK-rearranged patients, ALK TKI naive, chemotherapy naïve): 91.7% (11/12, 61.5-99.8%)
objective response rate (180mg, ALK-rearranged patients, ALK TKI naive, received chemotherapy before): 55.6% (5/9, 21.2-86.3%)
objective response rate (180mg, ALK-rearranged patients, Crizotinib and other ALK TKIs): 66.7% (2/3, 9.4-99.2%)
objective response rate (180mg, ALK-rearranged patients, Crizotinib only): 47.4% (9/19, 24.4-71.1%)
objective response rate (180mg, ALK-rearranged patients, Other ALK TKIs): 100% (1/1, 2.5-100.0%)
objective response rate (180mg, Baseline CNS metastasis, ALK TKI naive): 28.6% (2/7, 3.7-71.0%)
objective response rate (180mg, Baseline CNS metastasis, Crizotinib only): 15.4% (2/13, 1.9-45.4%)
objective response rate (180mg, Baseline CNS metastasis, Radiotherapy before): 0 (0/7, 0-41.0%)
objective response rate (180mg, Baseline CNS metastasis, Radiotherapy naïve): 31.3% (5/16, 11.0-58.7%)
intracranial objective response rate (180mg): 50.0% (2/4, 6.8-93.2%)
intracranial objective response rate (180mg, ALK TKI naive): 100% (1/1, 2.5-100%)
intracranial objective response rate (180mg, Crizotinib only): 50.0% (1/2, 1.3-98.7%)
intracranial objective response rate (180mg, Radiotherapy naïve): 31.3% (5/16, 11.0-58.7%)
objective response rate (180mg, Prior ALK TKI treatment: Crizotinib and other ALK TKI): 66.7% (2/3, 9.4-99.2%)
objective response rate (180mg, Prior ALK TKI treatment: Crizotinib only): 42.9% (9/21, 21.8-66.0%)
objective response rate (180mg, ROS1-rearranged patients): 66.7% (4/6, 22.3-95.7%)
objective response rate (180mg, ROS1-rearranged patients, Crizotinib naive): 100% (4/4, 39.8-100%)
objective response rate (180mg, ROS1-rearranged patients, Received Crizotinib before): 0 (0/2, 0-84.2%)
objective response rate (180mg, dose expansion phase, Prior ALK TKI treatment: ALK TKI naive): 79.2% (19/24, 57.8-92.9%)
DCR (ALK TKI naive): 92.9%
ORR (ALK TKI naive): 76.2%
median PFS (ALK TKI naive): not reached
DOR, median (95% CI) (120 mg): NR (5.52, NR)
PFS, median (95% CI) (120 mg): NR (6.87, NR)
TTP, median (95% CI) (120 mg): NR (6.87, NR)
DCR (95% CI) (120 mg (n=47)): 83.0% (69.2%, 92.4%)
ORR (95% CI) (120 mg (n=47)): 53.2% (38.1%, 67.9%)
PFS, number of events (%) (120 mg (n=47)): 12 (25.5%)
DOR, median (95% CI) (180 mg): NR (5.49, NR)
PFS, median (95% CI) (180 mg): NR (NR, NR)
TTP, median (95% CI) (180 mg): NR (NR, NR)
DCR (95% CI) (180 mg (n=44)): 88.6% (75.4%, 96.2%)
ORR (95% CI) (180 mg (n=44)): 63.6% (47.8%, 77.6%)
PFS, number of events (%) (180 mg (n=44)): 8 (18.2%)
DOR, median (95% CI) (total): NR (5.65, NR)
PFS, median (95% CI) (total): not reached (95% CI 6.93 months to NR); also recorded: NR (6.93, NR)
TTP, median (95% CI) (total): NR (6.93, NR)
PFS, number of events (%) (total (n=91)): 20 (22.0%)
patients who achieved SD (ALK-rearranged patients (n = 91)): Twenty-five
ORR (ALK-rearranged, ALK TKI naive): 76.3%
ORR (ALK-rearranged, ALK TKI naive, chemotherapy-naive): 85.0%
ORR (ALK-rearranged, ALK TKI naive, received chemotherapy): 66.7%
ORR [1]: 45.7%
median PFS [1]: 6.9 months
patients who achieved PR, n (%) (FAS n = 99): 56 (56.6%)
patients with progressive disease, n (%) (FAS n = 99): 8 (8.1%)
patients with stable disease (SD), n (%) (FAS n = 99): 27 (27.3%)
